Experiments:
[1] = system: Southern Root Knot Nematode (Meloidogyne incognita); assay: Drench test in tomato: nematicidal activity (percentage of gall reduction); assay type: in vivo; conditions: 10 mg per plant at transplanting; 3,000 Meloidogyne incognita per 100 cm^3 of soil
Procedure: (§1) To prepare a suitable dosage form the formulated product PL251 (liquid formulation of P. lilacinum comprising BREAK-THRU® S240 and AEROSIL®) is diluted with water to the desired concentration.
(§2) A quantity of 5,000 cm^3 of sandy loam soil, pH 6.8 per pot is mixed with 150,000 infective units (mixed population of eggs and juveniles) of the Southern Root Knot Nematode (Meloidogyne incognita). The desired concentration of Purpureocillium lilacinum strain 251 is drenched in 400 mL of solution (application A) to obtain 80% field capacity. Pots are incubated at 25° C. until transplanting of tomato seedlings (Lycopersicon lycopersicum) at 7 days after drench application A. At the day of transplanting a second drench application (application B) is carried out with 400 mL of solution.
(§3) After transplanting of tomato seedlings several post-plant application patterns are tested using 400 mL of solution per application (Table A).
(§4) In addition, 10 mg of the nematicide fluopyram (VELUM® PRIME, suspension concentrate SC 400) is applied at transplanting and used as a chemical reference. The non-treated control (UTC) is drenched with 400 mL of water at each application. […]
(§5) After the specified period the nematicidal activity is determined on the basis of the percentage of gall reduction. […] Moreover the shoot biomass is also determined to assess the overall plant health status. […]

[2] = system: tomato seedlings (Lycopersicon lycopersicum); assay: Drench test in tomato: shoot biomass (plant health); assay type: in vivo; conditions: 10 mg fluopyram/plant at transplanting
Procedure: as §1, §2, §3, §4, §5

O=C(NCCc1ncc(C(F)(F)F)cc1Cl)c1ccccc1C(F)(F)F [fluopyram]
nematicidal activity (percentage of gall reduction) [1]: excellent biocontrol activity
shoot fresh weight vs UTC (ANOVA, Bonferroni) [2]: significant improvement of shoot fresh weight

Reference: US20220232835A1, “PLANT HEALTH EFFECT OF PURPUREOCILLIUM LILACINUM” (priority 2016, published 2022)
